From patent publication US9113629B2, “4-amino-6-(4-substituted-phenyl)-picolinates and 6-amino-2-(4-substituted-phenyl)-pyrimidine-4-carboxylates and their use as herbicides” (DOW AGROSCIENCES LLC, priority 2013, dated 2015)
Like-named read-outs stand apart in the source and are kept apart here.

What was measured:
[1] = test system: Key Broadleaf Weed and Crop Species; experiment: Post-emergent Test II herbicidal activity (Table 5); type: in vivo; settings: post-emergence, 336 h, post-emergent, 14 days after application; for pest or weed control at 70 g/ha: 70 g ai/ha; for pest or weed control at 140 g/ha: 140 g ai/ha
In short: (§1)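 Scoring: visual, 0–100% injury at 14 d versus untreated. Treatment: overhead track spray, 187 L/ha, onto plants at the first–second true leaf stage. Growth: greenhouse, ~15 h light, 23–29 °C day, 22–28 °C night.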

[2] = test system: Key Grass and Sedge Weeds as well as Grass Crops; experiment: Post-emergent Test II herbicidal activity (Table 6); type: in vivo; settings: post-emergence, 336 h; for pest or weed control at 70 g/ha: application rate 70 g ai/ha; for pest or weed control at 140 g/ha: application rate 140 g ai/ha
In short: as §1

[3] = ABUTH: velvetleaf (Abutilon theophrasti), read-out: Visual Growth Reduction (%) 14 Days After Application ABUTH
[4] = AMARE: redroot pigweed (Amaranthus retroflexus), read-out: Visual Growth Reduction (%) 14 Days After Application AMARE
[5] = BRSNN: oilseed-rape, canola (Brassica napus), read-out: Visual Growth Reduction (%) 14 Days After Application BRSNN
[6] = CHEAL: lambsquarters (Chenopodium album), read-out: Visual Growth Reduction (%) 14 Days After Application CHEAL
[7] = EPHHL: wild poinsettia (Euphorbia heterophylla), read-out: Visual Growth Reduction (%) 14 Days After Application EPHHL
[8] = HELAN: sunflower (Helianthus annuus), read-out: Visual Growth Reduction (%) 14 Days After Application HELAN
[9] = VIOTR: wild pansy (Viola tricolor), read-out: Visual Growth Reduction (%) 14 Days After Application VIOTR
[10] = CYPES: yellow nutsedge (Cyperus esculentus), read-out: Visual Growth Reduction (%) 14 Days After Application, CYPES
[11] = DIGSA: crabgrass (Digitaria sanguinalis), read-out: Visual Growth Reduction (%) 14 Days After Application, DIGSA
[12] = ECHCG: barnyardgrass (Echinochloa crus-galli), read-out: Visual Growth Reduction (%) 14 Days After Application, ECHCG
[13] = ORYSA: rice (Oryza sativa), read-out: Visual Growth Reduction (%) 14 Days After Application, ORYSA
[14] = SETFA: giant foxtail (Setaria faberi), read-out: Visual Growth Reduction (%) 14 Days After Application, SETFA
[15] = SORVU: grain sorghum (Sorghum vulgare), read-out: Visual Growth Reduction (%) 14 Days After Application, SORVU
[16] = TRZSS (wheat, Triticum aestivum), read-out: Visual Growth Reduction (%) 14 Days After Application, TRZSS
[17] = ZEAMX: maize, corn (Zea mays), read-out: Visual Growth Reduction (%) 14 Days After Application, ZEAMX

COC(=O)c1nc(-c2cc(F)c(C(F)(F)F)cc2F)nc(N)c1OC [Compound 148, methyl 6-amino-2-(2,5-difluoro-4-(trifluoromethyl)phenyl)-5-methoxypyrimidine-4-carboxylate]
pest or weed control at 70 g/ha [1, 3]: 75 to 84% | pest or weed control at 140 g/ha [1, 3]: 75 to 84% | pest or weed control at 70 g/ha [1, 4]: 0 to 29% | pest or weed control at 140 g/ha [1, 4]: 0 to 29% | pest or weed control at 70 g/ha [1, 5]: 45 to 59% | pest or weed control at 140 g/ha [1, 5]: 60 to 74% | pest or weed control at 70 g/ha [1, 6]: 85 to 94% | pest or weed control at 140 g/ha [1, 6]: 95 to 100% | pest or weed control at 70 g/ha [1, 7]: 85 to 94% | pest or weed control at 140 g/ha [1, 7]: 75 to 84% | pest or weed control at 70 g/ha [1, 8]: 45 to 59% | pest or weed control at 140 g/ha [1, 8]: 60 to 74% | pest or weed control at 70 g/ha [1, 9]: 45 to 59% | pest or weed control at 140 g/ha [1, 9]: 60 to 74% | melting point: 96 to 98 °C | pest or weed control at 70 g/ha [2, 10]: 60 to 74% | pest or weed control at 140 g/ha [2, 10]: 75 to 84% | pest or weed control at 70 g/ha [2, 11]: 0 to 29% | pest or weed control at 140 g/ha [2, 11]: 0 to 29% | pest or weed control at 70 g/ha [2, 12]: 0 to 29% | pest or weed control at 140 g/ha [2, 12]: 0 to 29% | pest or weed control at 70 g/ha [2, 13]: 0 to 29% | pest or weed control at 140 g/ha [2, 13]: 30 to 44% | pest or weed control at 70 g/ha [2, 14]: 0 to 29% | pest or weed control at 140 g/ha [2, 14]: 0 to 29% | pest or weed control at 70 g/ha [2, 15]: 0 to 29% | pest or weed control at 140 g/ha [2, 15]: 0 to 29% | pest or weed control at 70 g/ha [2, 16]: 30 to 44% | pest or weed control at 140 g/ha [2, 16]: 60 to 74% | pest or weed control at 70 g/ha [2, 17]: 0 to 29% | pest or weed control at 140 g/ha [2, 17]: 30 to 44%
